Legend:
Assay type in all cases: cell-based, Lewis rats
[1] = tested on: Peptide-specific T cell lines; test: T cell proliferation assay, peptide-specific T cell lines from peptide-immunised rats; details: T cell line from 176-190-immunised PLNC; in vitro peptide 10 µg/ml
hsp65-PLNC = test: T cell proliferation assay, hsp65-PLNC; details: PLNC from hsp65-immunised rats; peptides 5 and 20 µg/ml
Experimental: (§1) Immunisations and primed lymph node populations: Rats were immunised with either Mt or hsp65. Mt was suspended at 5 mg/ml in IFA or DDA and 100 µl injected in each hind footpad (i.e. 500 µg/footpad, 1 mg/rat). Hsp65 (1 mg/ml in PBS) was mixed 1:1 with DDA and 100 µl injected (i.e. 50 µg/footpad, 100 µg/rat). Ten to 21 days later, draining popliteal lymph nodes were removed, disaggregated, washed three times and used as a source of primed lymph node cells (PLNC). In control experiments splenocytes and lymph nodes from unimmunised rats and PLNC from rats immunised with IFA or DDA/PBS alone were used.
T cell proliferation assays: PLNC were cultured in triplicate in 200 µl flat bottom microtitre wells (Costar) at 2 x 10^5 cells per well with or without antigen. In initial experiments PLNC were tested for responsiveness to individual peptides at concentrations of 5 and 20 µg/ml, and Mt, hsp65 and PPD over a range of concentrations. Concanavalin A (2 µg/ml) was used as a positive control for T cell proliferation. Cultures were incubated for 96 h at 37°C in a humidified atmosphere of 5% CO2. Cultures were pulsed for the final 16 h with [^3H] TdR (Amersham, U.K., 1 uCi/well) and TdR uptake measured using a liquid scintillation β counter. Assays using T cell lines were performed as above using 2 x 10^4 line cells per well with irradiated (30 Gy) syngeneic accessory cells (either 3 x 10^5 splenocytes/well or 10^6 thymocytes/well). Results are expressed as mean counts per minute (cpm) of triplicate cultures. In experiments where responses to Ag were low, responses were considered significant if the stimulation index (S.I. = […]) was greater than two and Student's t tests gave p < 0.01.
Hsp65-PLNC were analysed for responsiveness to a panel of peptides covering the entire sequence of hsp65 (Fig. 3a). […] In terms of magnitude of response, three regions of the molecule (residues 176-190, 211-230 and 221-240) appeared to contain the "dominant" T cell epitopes, while regions 86-100. 251-270, 396-410 and 506-525 contained "subdominant" or minor epitopes.

Mt-PLNC = test: T cell proliferation assay, Mt-PLNC; details: PLNC from rats immunised with Mt mixed with DDA
Experimental: as §1
T cell proliferation assays: PLNC were cultured in triplicate in 200 µl flat bottom microtitre wells (Costar) at 2 x 10^5 cells per well with or without antigen. In initial experiments PLNC were tested for responsiveness to individual peptides at concentrations of 5 and 20 µg/ml, and Mt, hsp65 and PPD over a range of concentrations. Concanavalin A (2 µg/ml) was used as a positive control for T cell proliferation. Cultures were incubated for 96 h at 37°C in a humidified atmosphere of 5% CO2. Cultures were pulsed for the final 16 h with [^3H] TdR (Amersham, U.K., 1 uCi/well) and TdR uptake measured using a liquid scintillation β counter. […] Results are expressed as mean counts per minute (cpm) of triplicate cultures. […]

RT1.B^1 molecules = test: Inhibition of proliferation of T cell lines with other Ag specificities (MHC affinity, preliminary); details: preliminary experiments, data not shown
Experimental: The relatively low quantities of hsp65 present in the Mt preparation might result in focusing of T cell responses on hsp65 epitopes with higher affinities for MHC class II molecules. […] Thus, when Ag concentrations are limited (i.e. following Mt immunisation) dominance of T cell epitopes might be more dependent on their relative MHC binding affinities, whereas following immunisation with large quantities of specific antigen (50-100 µg hsp65 per rat) relative dominance might not be simply a function of affinity for MHC. Clearly, antigen processing of the intact hsp65 molecule will determine the peptide fragments generated during in vivo priming, and the naturally processed fragments will not be identical to the synthetic 15mers used in this study. Also the molecular context of hsp65 (i.e recombinant monomeric hsp65, or the multimeric native protein in the Mt preparation) could affect antigen processing and influence the pattern of epitope recognition.

peptide 176-190: synthetic 15mer of mycobacterial hsp65 containing the AA-associated epitope 180-188
CPM T Cell Line [1]: 31400 cpm
hsp65-PLNC proliferative response to peptide (hsp65-PLNC): dominant
Mt/DDA-PLNC response to hsp65 peptide (Mt-PLNC): dominant
affinity for RT1.B^1 molecules relative to peptides 211-225 or 226-240 (RT1.B^1 molecules): higher affinity

— patent EP0751957B1, “PEPTIDE FRAGMENTS OF MICROBIAL STRESS PROTEINS AND PHARMACEUTICAL COMPOSITION MADE THEREOF FOR THE TREATMENT AND PREVENTION OF INFLAMMATORY DISEASES” (priority 1994, dated 2004)
